# According to US9078825B2, “Method for the production of bioadhesive compact matrices” (Università degli Studi di Genova, priority 2008, dated 2015):
# Counter-ions that a name gives are not always drawn.
# Assay: Heating of the active substance at 150° C. for 15 minutes (HPLC, DSC, TGA, HSM, spectroscopic investigations)
# Type: physicochemical
# Protocol: Physical Stability Studies on the Active Substances and the Excipients Used in the Formulation of the Tablets.
# 5.0 mg carefully weighed of every excipient/substance was placed in aluminium pans, closed with a suitable press and analyzed by means of DSC (Perkin Elmer 7) under nitrogen flow; the analysis was also carried out on the thermally-treated powders. The operating conditions utilised were the following: initial temperature (Tstart)=50° C.; final temperature (Tend) 250° C.; gradient=10° C./min.
# The determination of the weight variations of the active substances and excipients, of the powder mixtures and the powders obtained by crushing the tablets was conducted through TGA 7 of Perkin Elmer, in nitrogen atmosphere, using the same temperatures and the same heating gradients used in the thermal heat treatments.
smiles,measurement,value
COc1ccc([C@@H]2Sc3ccccc3N(CCN(C)C)C(=O)[C@@H]2OC(C)=O)cc1 [Diltiazem hydrochloride],physical or chemical modification after heating,did not involve any physical or chemical modification
